# Tested on: mushroom-derived tyrosinase
# Test: Tyrosinase activity inhibition (dopachrome formation from L-dopa, absorbance at 490 nm)
# Type: biochemical
# Settings: for Inhibitory Rate (%): 37° C., 30 minutes; for tyrosinase inhibitory activity compared with comparative drugs: comparison in words
# Experimental: As test substances, the composition prepared in Example 1 and four types of anthocyanin crystal prepared in Example 2 were used. To a 96-well plate, 40 μl of mushroom-derived tyrosinase (125 unit/ml; dissolved in a 67 mmol/l phosphate buffer solution; […] Sigma), and 40 μl of an inhibitor solution were added. The plate was allowed to stand for 37° C. for 30 minutes. Then, the amount of dopachrome produced was determined by absorbance at 490 nm. Tyrosinase inhibitory activity was expressed as an inhibitory rate obtained by the following equation: Inhibitory Rate (%)=[([…]: absorbance at 490 nm of a control solution • B: absorbance at 490 nm of a control solution (blank solution) • C: absorbance at 490 nm of an anthocyanin solution • D: absorbance at 490 nm of an anthocyanin solution (blank solution).
Structure (SMILES),Inhibitory Rate (%) (inhibitor concentration 10 mM (2.7 mg/ml)),tyrosinase inhibitory activity compared with comparative drugs,Inhibitory Rate (%) (inhibitor concentration 0.2 mM)
"OC[C@H]1O[C@@H](Oc2ccc(O)cc2)[C@H](O)[C@@H](O)[C@@H]1O [Arbutin, reference compound]",10.4,,
"OC[C@H]1O[C@@H](Oc2cc3c(O)cc(O)cc3[o+]c2-c2ccc(O)c(O)c2)[C@H](O)[C@@H](O)[C@@H]1O [C3G (Example 2), cyanidin-3-glucoside]",,"tyrosinase inhibitory activity at the same level as that found in comparative drugs such as kojic acid, arbutin",45.0
"OC[C@H]1O[C@@H](Oc2cc3c(O)cc(O)cc3[o+]c2-c2cc(O)c(O)c(O)c2)[C@H](O)[C@@H](O)[C@@H]1O [D3G (Example 2), delphinidin-3-glucoside]",,"tyrosinase inhibitory activity at the same level as that found in comparative drugs such as kojic acid, arbutin",67.5
"CC1O[C@@H](OC[C@H]2OC(Oc3cc4c(O)cc(O)cc4[o+]c3-c3cc(O)c(O)c(O)c3)[C@H](O)C(O)C2O)C(O)C(O)[C@H]1O (stereo partly shown) [D3R (Example 2), delphinidin-3-rutinoside]",,"tyrosinase inhibitory activity at the same level as that found in comparative drugs such as kojic acid, arbutin",70.1
"N[C@@H](CCC(=O)N[C@@H](CS)C(=O)NCC(=O)O)C(=O)O [Glutathione, reference compound]",,,13.2
"O=c1cc(CO)occ1O [Kojic Acid, reference compound]",,,34.7
"N[C@@H](CS)C(=O)O [L-Cysteine, reference compound]",,,29.8
